Like-named read-outs stand apart in the source and are kept apart here.
How the values were obtained:
[1] = system: ATF4; assay: ATF4 expression inhibition assay (ATF4 5'UTR luciferase reporter, Tg-stressed HEK293T cells); assay type: cell-based, human; conditions: Homo sapiens, HEK-293T, 3 h; for inhibition at 0.1 µM: read-out: % ATF4 inhibition at 100 nM; for IC50: read-out: ATF4 inhbition IC50; for inhibition at 1 µM: read-out: % ATF4 inhibition at 1 μM
Procedure, shortened: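 HEK293T stably expressing luciferase fused downstream of human full-length ATF4 5′UTR, stressed with 100 nM thapsigargin plus compound (100 nM or 1 μM; IC50 series 0.1 nM to 1 μM) for 3 h at 37° C. Luminescence normalized to Tg alone (0%) and untreated cells (100% inhibition).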

[2] = system: HEK293T cells; assay: Recovery of protein translation in stressed HEK293T cells; assay type: cell-based, human; conditions: 1 μM (FIG. 4)
Description: Despite the great potency on the inhibition of ATF4 expression, ISRIB is not able to completely restore protein synthesis when the global protein translation is decreased under these stress conditions. […] Compound 4 has a great potency for the inhibition of ATF4 expression under stress condition (FIG. 3) and is much better at restoring global protein translation under ER stress-mediated repression and going beyond a 100% recovery (FIG. 4).

[3] = system: Chinese hamster ovary (CHO) cells; assay: Protein translation assay (puromycin labelling, CHO cells); assay type: cell-based; conditions: media alone = 100%; for activity at 1 µM: Cricetulus griseus, CHO
Experimental: Chinese hamster ovary (CHO) cells were maintained at 37° C. and 5% CO2 in Dulbecco's Modified Eagle's Media (DMEM) supplemented with 10% fetal bovine serum, 2 mM L-glutamine, 100 U/ml penicillin, and 100 μg/ml streptomycin. After reaching 80% of confluence, cells were detached and seeded on 6 well plates in complete media, allowed to recover overnight and treated for 2 hours with 1 μM of the test compound (to assess protein synthesis levels in unstressed condition), or for 1 hour with 100 nM or 1 μM of the test compound and then co-treated with 300 nM Tg and 100 nM or 1 μM of the test compound (to assess the recovery of protein synthesis in a stressed condition). Cells treated with Tg alone were used as controls.
After the 2 hours treatments, media were replaced by adding 10 μg/ml puromycin (Sigma Aldrich #P8833) in complete media for 30 min. Media were removed and cells were lysed with SDS-PAGE lysis buffer. Lysates were transferred to 1.5 ml tubes and sonicated for 3 min and total protein amount were quantified using BCA Protein Assay Kit (Pierce). Equal amount of protein (30 μg) was loaded on SDS-PAGE gels. Proteins were transferred onto 0.2 μm PVDF membranes (BioRad) and probed with primary antibodies diluted in Tris-buffered saline supplemented with 0.1% Tween 20 (Merck #S6996184 505) and 3% bovine serum albumin (Rockland #BSA-50).
Puromycin (12D10) (Merck #MABE343) and β-actin (Sigma Aldrich #A5441) antibodies were used as primary antibody. A HRP-conjugated secondary antibody (Rockland) was employed to detect immune-reactive bands using enhanced chemiluminescence (ECL Western Blotting Substrate, Pierce). Quantification of protein bands was done by densitometry using ImageJ software.
Percent increase of protein synthesis in unstressed cells (without Tg treatment) in the presence of media alone or certain test compounds is shown in Table 3 The percentage levels were normalized to the media alone condition, which correspond to 100% protein synthesis.
Percent recovery of protein synthesis in stressed cells (with Tg treatment) due to the test compounds at 100 nM or 1 μM is also shown in Table 3. The levels were normalized to the media alone and to Tg alone conditions, which correspond to 100% and 0% respectively.

[4] = 100 nM test compound, 100 nM thapsigargin, 3 hours, HEK293T ATF4 luciferase reporter
[5] = 100 nM thapsigargin, 3 hours, HEK293T ATF4 luciferase reporter
[6] = 1 μM test compound, 100 nM thapsigargin, 3 hours, HEK293T ATF4 luciferase reporter
[7] = 2 h, unstressed CHO cells, 1 μM, 2 hours, read-out: % Protein synthesis in unstressed cells (1 μM test compound)
[8] = CHO cells stressed with 300 nM Tg, 1 μM compound, Tg alone = 0%, read-out: % Recovery of protein expression (1 μM test compound)

Structure (SMILES) | inhibition at 0.1 µM [1, 4] [%] | IC50 [1, 5] [µM] | inhibition at 1 µM [1, 6] [%] | percent recovery of protein translation in stressed cells [2] [%] | % Recovery of protein expression (100 nM test compound) ([3]; CHO cells stressed with 300 nM Tg, 100 nM compound, Tg alone = 0%) [%] | activity at 1 µM [3, 7] [%] | activity at 1 µM [3, 8] [%] | inhibition at 0.1 µM [1] [%] | inhibition at 1 µM [1] [%] | IC50 [1] [µM]
O=C(COc1ccc(Cl)c(F)c1)NC1CCN(NC(=O)COc2ccc(Cl)c(F)c2)CC1 [Compound 4, N,N′-(piperidine-1,4-diyl)bis(2-(4-chloro-3-fluorophenoxy)acetamide)] | 93.2 | 0.0031 | 94.7 | > 100 | 83.5 | 105 | 169 | – | – | –
O=C(NN1CCC(NC[C@@H](O)COc2ccc(Cl)c(F)c2)CC1)c1cc2cc(Cl)ccc2o1 [Compound 54] | – | – | – | – | – | 99.7 | 69.9 | 87.2 | 97.2 | 0.0016
O=C(NN1CCC(NC[C@H](O)COc2ccc(Cl)c(F)c2)CC1)c1cc2cc(Cl)ccc2o1 [Compound 55, (S)-5-chloro-N-(4-((3-(4-chloro-3-fluorophenoxy)-2-hydroxypropyl)amino)piperidin-1-yl)benzofuran-2-carboxamide] | – | – | – | – | – | 110 | 49.6 | 58.1 | 80.5 | 0.102
O=C(NN1CCC(NC[C@@H](O)COc2ccc(Cl)c(F)c2)CC1)c1ccc2cc(Cl)ccc2n1 [Compound 56, (R)-6-chloro-N-(4-((3-(4-chloro-3-fluorophenoxy)-2-hydroxypropyl)amino)piperidin-1-yl)quinoline-2-carboxamide] | 63.4 | 0.0717 | 75.6 | – | – | 155 | 46.1 | – | – | –
O=C(NN1CCC(NC[C@H](O)COc2ccc(Cl)c(F)c2)CC1)c1ccc2cc(Cl)ccc2n1 [Compound 57, (S)-6-chloro-N-(4-((3-(4-chloro-3-fluorophenoxy)-2-hydroxypropyl)amino)piperidin-1-yl)quinoline-2-carboxamide] | 25.9 | > 10 | 39.8 | – | – | 139 | 69.6 | – | – | –
O=C(NN1CCN(C[C@H](O)COc2ccc(Cl)c(F)c2)CC1)c1ccc2cc(Cl)ccc2n1 [Compound 59, (S)-6-chloro-N-(4-(3-(4-chloro-3-fluorophenoxy)-2-hydroxypropyl)piperazin-1-yl)quinoline-2-carboxamide] | 38.8 | 0.57 | 66 | – | – | 180 | 98.7 | – | – | –
O=C(NN1CCN(C[C@@H](O)COc2ccc(Cl)c(F)c2)CC1)c1ccc2cc(Cl)ccc2c1 [Compound 60, (R)-6-chloro-N-(4-(3-(4-chloro-3-fluorophenoxy)-2-hydroxypropyl)piperazin-1-yl)-2-naphthamide] | 92.6 | 0.0015 | 94.6 | – | – | 140 | 126 | – | – | –
O=C(NN1CCN(C[C@H](O)COc2ccc(Cl)c(F)c2)CC1)c1ccc2cc(Cl)ccc2c1 [Compound 61, (S)-6-chloro-N-(4-(3-(4-chloro-3-fluorophenoxy)-2-hydroxypropyl)piperazin-1-yl)-2-naphthamide] | 72.4 | 0.0294 | 86.6 | – | – | 195 | 171 | – | – | –
O=C(NN1CCN(C[C@@H](O)COc2ccc(Cl)c(F)c2)CC1)c1ccc(OC(F)(F)F)cc1 [Compound 62, (R)-N-(4-(3-(4-chloro-3-fluorophenoxy)-2-hydroxypropyl)piperazin-1-yl)-4-(trifluoromethoxy)benzamide] | 85.9 | < 0.1 | 88.8 | – | – | 99.5 | 40.2 | – | – | –
O=C(NN1CCN(C[C@@H](O)COc2ccc(Cl)c(F)c2)CC1)c1ccc(Cl)cc1 [Compound 63, (R)-4-chloro-N-(4-(3-(4-chloro-3-fluorophenoxy)-2-hydroxypropyl)piperazin-1-yl)benzamide] | 14.8 | < 1 | 84.6 | – | – | 107 | 16.4 | – | – | –
O=C(NN1CCN(C[C@@H](O)COc2ccc(Cl)c(F)c2)CC1)c1ccc(Cl)cn1 [Compound 64, (R)-5-chloro-N-(4-(3-(4-chloro-3-fluorophenoxy)-2-hydroxypropyl)piperazin-1-yl)picolinamide] | 20 | – | 56.6 | – | – | 109 | 34.7 | – | – | –
O=C(NN1CCN(C[C@@H](O)COc2ccc(Cl)c(F)c2)CC1)c1ccc(C(F)(F)F)cn1 [Compound 65, (R)-N-(4-(3-(4-chloro-3-fluorophenoxy)-2-hydroxypropyl)piperazin-1-yl)-5-(trifluoromethyl)picolinamide] | 22.6 | < 1 | 80.5 | – | – | 99 | 51.1 | – | – | –
O=C(NN1CCN(C[C@@H](O)COc2ccc(Cl)c(F)c2)CC1)c1cnc(C(F)F)cn1 [Compound 66, (R)-N-(4-(3-(4-chloro-3-fluorophenoxy)-2-hydroxypropyl)piperazin-1-yl)-5-(difluoromethyl)pyrazine-2-carboxamide] | 0 | > 1 | 0 | – | – | 84.9 | 17.6 | – | – | –
N#Cc1ccc(C(=O)NN2CCN(C[C@@H](O)COc3ccc(Cl)c(F)c3)CC2)nc1 [Compound 67, (R)-N-(4-(3-(4-chloro-3-fluorophenoxy)-2-hydroxypropyl)piperazin-1-yl)-5-cyanopicolinamide] | 3.6 | > 1 | 27.8 | – | – | 80 | 27.6 | – | – | –
O=C(NN1CCC(NC[C@@H](O)COc2ccc(Cl)c(F)c2)CC1)c1ccc(Cl)cn1 [Compound 68, (R)-5-chloro-N-(4-((3-(4-chloro-3-fluorophenoxy)-2-hydroxypropyl)amino)piperidin-1-yl)picolinamide] | 9 | – | 50.9 | – | – | 81.8 | 49.3 | – | – | –
COc1ccc2oc(C(=O)NN3CCC(NC[C@@H](O)COc4ccc(Cl)c(F)c4)CC3)cc2c1 [Compound 69, (R)-N-(4-((3-(4-chloro-3-fluorophenoxy)-2-hydroxypropyl)amino)piperidin-1-yl)-5-methoxybenzofuran-2-carboxamide] | 37 | < 1 | 78.1 | – | – | 129 | 43.1 | – | – | –

From patent US11166942B2 (PRAXIS BIOTECH LLC, priority 2018, dated 2021)
